Assay results from US12378500B2, “Liquid laundry product comprising a fragrance composition comprising isopulegol” (TAKASAGO INTERNATIONAL CORPORATION, priority 2016, dated 2025).

Test system: human brain
Assay: CNV (Contingent Negative Variation) method, inhalation of fragrance compositions by a panel of subjects
Format: in vivo
Conditions: 2 wt % isopulegol added to fragrance A; fragrance A as control; inhaled; panel of 7 subjects; FIG. 3
Protocol: The stimulating effect of isopulegol was determined by the CNV (Contingent Negative Variation) method as described below and briefly summarized in FIGS. 1 and 2.
The CNV was measured using a digital electroencephalograph BIOSEMi (registered trademark). Electrodes for the CNV measurement were placed at Fp1, Fp2, F4, Fz, F3, T7, C3, Cz, C4, T8, P4, Pz, P3, O1, Oz, O2 according to the international 10-20 system, electrodes for ear lobes were set to indifferent electrodes, and brain waves were recorded at a time constant of 5.0 seconds referenced to the linked earlobes. In order to check artifacts of eye movement to a brain wave, vertical and horizontal movements of the left eye were also recorded.
Confirmation of a stimulative effect of a sample was conducted by steps of delivering a warning stimulus S1 (tone of 60-65 dB), followed 2300 ms later by a second stimulus S2 (light source). Test fragrance compositions were inhaled from jars disposed a few (e.g. 15-20) centimetres from the subjects' nose during each period of acquisition. […] The base line was determined from an average voltage of a brain wave in a time period of 500 ms before S1. The evaluation of the CNV waveform was conducted according to the method of Tori et al. (op. cit.), in which CNV was evaluated by the area (unit: ms×[…]) of an early component between 400 ms to 1,000 ms after the warning sound stimulus (S1).

C=C(C)[C@@H]1CC[C@@H](C)C[C@H]1O (racemic) [isopulegol]
CNV activity (area under the curve) of fragrance A + isopulegol versus fragrance A alone: enhances the CNV activity of fragrance A
